# Assay results reported in article PMC6383986, “Fragment-Based Covalent Ligand Screening Enables Rapid Discovery of Inhibitors for the RBR E3 Ubiquitin Ligase HOIP” (Journal of the American Chemical Society, 2019).
# Assays:
# [1] = tested on: untransfected HEK293T cells; assay: CellTiter-Glo Luminescent cell viability assay, untransfected cells; type: cell-based; conditions: 17 h
# Protocol: Separately, untransfected HEK293T cells were incubated with compounds (1), (11a) and (17) for 17 h, and the cell viability determined using the CellTiter-Glo® Luminescent Cell Viability Assay as described above. Average data from three independent experiments each done in triplicate were plotted as percentage cell viability normalized to DMSO control with GraFit (v.7) against different compound concentrations and fitted using the IC50-4 parameter logistic (Supplementary […]
# Supplementary Figure S14. A-D) Uncropped concentration-response graphs (A and D from Figure 6D) and Western blots from the NF-κB reporter and cell viability assays. HEK293T cells transfected with His6-tagged HOIP, HOIL-1L and SHARPIN (H/H/S) were treated with compounds (11a) and (17) for 17 h and the relative NF-κB activity and cell viability was plotted against compound concentration. E) Cell viability of untransfected HEK293T cells treated with compound (1), (11a) and (17) for 17 h. The observed cell toxicity for compound (1) was in line that previously […]
# (1 picture or pasted object on this page, not shown here)
# [2] = tested on: E1, UbcH5c, UbcH7, HOIL-1L, RNF144A, HHARI, TRIAD3A RBR domains, NEDD4L, E6AP, OTULIN, CYLD-1; assay: LC-MS-based enzyme counter screen; type: binding; conditions: 2-fold excess, positive control
# Protocol: 0.1% formic acid in water. The samples were analyzed on a Q Exactive MS (Thermo Fisher) coupled to an Easy-nLC chromatographic system (Thermo Fisher) with a nano ESI source (Thermo Fisher). Each sample (2 µL) was injected and trapped on a C18 Acclaim pepMap 100 enrichment column (75 µm id × 2 cm, 3 µm nanoviper, Thermo Fisher). The samples were transferred to a C18 Acclaim PepMap RSLC analytical column (75 µm id × 15 cm, 2 µm, Thermo Fisher) at 300 nL/min. Mobile phase A (0.1% Formic acid in water, v/v); mobile phase B (0.1% […]
# min (70-95% B), 56-61 min (95% B). The nanospray ionisation source was operated in the positive mode with spray voltage set at 2 kV, and heated capillary at 250 °C. The Q Exactive was operated in the data dependent mode and the top 15 most intense ions were subjected to HCD fragmentation with normalised collision energy set at 26%. The MS1 scans were performed at a resolution of 70 000 from 400-1600 m/z, automatic gain control (AGC) value 3 e6, maximum injection time 100 ms. […]
# Compounds (1) and (5) were screened against E1, the E2s UbcH5c and UbcH7, the RBR domains of the E3 ligases HOIP, HOIL-1L, RNF144A, HHARI and TRIAD3A, the HECT E3 ligases NEDD4L and E6AP, and the DUBs OTULIN and CYLD-1. […] The samples were analyzed after 0.5 and 24 h incubation. […]
compound,measurement,setting,value
"Cc1ccc(S(=O)(=O)/C=C/C#N)cc1 [Compound 1, BAY 11–7082, reference compound]",cell viability,[1],cell toxicity
same,labeling of counter screen proteins,[2],rapid and extensive labeling for most proteins
